# Results from the NIST ThermoML archive (doi:10.1021/je050288d).
# Numbers after ± are expanded uncertainties.
# Details: Gas
structure (smiles),measurement,setting,value
O [water],viscosity,"297.39 K, Mass density=0.0402 kg/m3",0.009665 ± 9.5e-05 mPa·s
same,viscosity,"297.88 K, Mass density=0.0668 kg/m3",0.009654 ± 9.5e-05 mPa·s
same,viscosity,"298.02 K, Mass density=0.0247 kg/m3",0.009675 ± 9.5e-05 mPa·s
same,viscosity,"298.08 K, Mass density=0.0368 kg/m3",0.009683 ± 9.5e-05 mPa·s
same,viscosity,"298.17 K, Mass density=0.1654 kg/m3",0.009693 ± 9.5e-05 mPa·s
same,viscosity,"298.3 K, Mass density=0.0186 kg/m3",0.0097 ± 9.5e-05 mPa·s
same,viscosity,"298.38 K, Mass density=0.1081 kg/m3",0.009686 ± 9.5e-05 mPa·s
same,viscosity,"298.57 K, Mass density=0.1973 kg/m3",0.009684 ± 9.5e-05 mPa·s
same,viscosity,"299.06 K, Mass density=0.0793 kg/m3",0.009709 ± 9.5e-05 mPa·s
same,viscosity,"300.07 K, Mass density=0.2351 kg/m3",0.009725 ± 9.5e-05 mPa·s
same,viscosity,"310.8 K, Mass density=0.0186 kg/m3",0.01013 ± 9.8e-05 mPa·s
same,viscosity,"310.87 K, Mass density=0.0368 kg/m3",0.01013 ± 9.8e-05 mPa·s
same,viscosity,"310.96 K, Mass density=0.0668 kg/m3",0.01011 ± 9.8e-05 mPa·s
same,viscosity,"311.24 K, Mass density=0.1654 kg/m3",0.01014 ± 9.8e-05 mPa·s
same,viscosity,"311.3 K, Mass density=0.0793 kg/m3",0.01013 ± 9.8e-05 mPa·s
same,viscosity,"311.39 K, Mass density=0.1081 kg/m3",0.01013 ± 9.8e-05 mPa·s
same,viscosity,"311.45 K, Mass density=0.0402 kg/m3",0.01015 ± 9.8e-05 mPa·s
same,viscosity,"311.77 K, Mass density=0.0247 kg/m3",0.01015 ± 9.8e-05 mPa·s
same,viscosity,"312.25 K, Mass density=0.2351 kg/m3",0.01014 ± 9.8e-05 mPa·s
same,viscosity,"313.01 K, Mass density=0.1973 kg/m3",0.01017 ± 9.8e-05 mPa·s
same,viscosity,"324.45 K, Mass density=0.0668 kg/m3",0.01059 ± 0.0001 mPa·s
same,viscosity,"324.54 K, Mass density=0.0247 kg/m3",0.0106 ± 0.0001 mPa·s
same,viscosity,"324.54 K, Mass density=0.1654 kg/m3",0.0106 ± 0.0001 mPa·s
same,viscosity,"324.74 K, Mass density=0.2351 kg/m3",0.01058 ± 0.0001 mPa·s
same,viscosity,"325 K, Mass density=0.0402 kg/m3",0.01062 ± 0.0001 mPa·s
same,viscosity,"325.15 K, Mass density=0.1973 kg/m3",0.01059 ± 0.0001 mPa·s
same,viscosity,"325.42 K, Mass density=0.1081 kg/m3",0.01062 ± 0.0001 mPa·s
same,viscosity,"325.96 K, Mass density=0.0368 kg/m3",0.01065 ± 0.0001 mPa·s
same,viscosity,"331.18 K, Mass density=0.0186 kg/m3",0.01083 ± 0.0001 mPa·s
same,viscosity,"331.47 K, Mass density=0.0793 kg/m3",0.01084 ± 0.0001 mPa·s
same,viscosity,"338.02 K, Mass density=0.1973 kg/m3",0.01103 ± 0.0001 mPa·s
same,viscosity,"338.38 K, Mass density=0.2351 kg/m3",0.01105 ± 0.0001 mPa·s
same,viscosity,"338.47 K, Mass density=0.0247 kg/m3",0.01108 ± 0.0001 mPa·s
same,viscosity,"338.71 K, Mass density=0.0368 kg/m3",0.0111 ± 0.0001 mPa·s
same,viscosity,"338.79 K, Mass density=0.0793 kg/m3",0.01108 ± 0.0001 mPa·s
same,viscosity,"338.83 K, Mass density=0.0186 kg/m3",0.01111 ± 0.0001 mPa·s
same,viscosity,"339.39 K, Mass density=0.0402 kg/m3",0.01112 ± 0.0001 mPa·s
same,viscosity,"340.17 K, Mass density=0.1081 kg/m3",0.01113 ± 0.0001 mPa·s
same,viscosity,"341.28 K, Mass density=0.0668 kg/m3",0.01117 ± 0.0001 mPa·s
same,viscosity,"352.03 K, Mass density=0.1973 kg/m3",0.01153 ± 0.00011 mPa·s
same,viscosity,"352.05 K, Mass density=0.1654 kg/m3",0.01154 ± 0.00011 mPa·s
same,viscosity,"352.17 K, Mass density=0.0668 kg/m3",0.01156 ± 0.00011 mPa·s
same,viscosity,"352.37 K, Mass density=0.2351 kg/m3",0.01154 ± 0.00011 mPa·s
same,viscosity,"352.75 K, Mass density=0.0186 kg/m3",0.0116 ± 0.00011 mPa·s
same,viscosity,"352.77 K, Mass density=0.0402 kg/m3",0.0116 ± 0.00011 mPa·s
same,viscosity,"352.79 K, Mass density=0.0793 kg/m3",0.01159 ± 0.00011 mPa·s
same,viscosity,"352.91 K, Mass density=0.0247 kg/m3",0.0116 ± 0.00011 mPa·s
same,viscosity,"353.16 K, Mass density=0.1081 kg/m3",0.0116 ± 0.00011 mPa·s
same,viscosity,"353.6 K, Mass density=0.0368 kg/m3",0.01163 ± 0.00011 mPa·s
same,viscosity,"365.86 K, Mass density=0.2351 kg/m3",0.01203 ± 0.00011 mPa·s
same,viscosity,"366.29 K, Mass density=0.1973 kg/m3",0.01205 ± 0.00011 mPa·s
same,viscosity,"366.37 K, Mass density=0.0247 kg/m3",0.01209 ± 0.00011 mPa·s
same,viscosity,"366.48 K, Mass density=0.1654 kg/m3",0.01207 ± 0.00011 mPa·s
same,viscosity,"366.77 K, Mass density=0.1081 kg/m3",0.01209 ± 0.00011 mPa·s
same,viscosity,"366.96 K, Mass density=0.0793 kg/m3",0.01211 ± 0.00011 mPa·s
same,viscosity,"367.03 K, Mass density=0.0402 kg/m3",0.01212 ± 0.00011 mPa·s
same,viscosity,"367.1 K, Mass density=0.0668 kg/m3",0.0121 ± 0.00011 mPa·s
same,viscosity,"367.84 K, Mass density=0.0186 kg/m3",0.01216 ± 0.00011 mPa·s
same,viscosity,"368.22 K, Mass density=0.0368 kg/m3",0.01216 ± 0.00011 mPa·s
same,viscosity,"380.42 K, Mass density=0.0247 kg/m3",0.0126 ± 0.00011 mPa·s
same,viscosity,"380.43 K, Mass density=0.1973 kg/m3",0.01257 ± 0.00011 mPa·s
same,viscosity,"380.59 K, Mass density=0.0668 kg/m3",0.01259 ± 0.00011 mPa·s
same,viscosity,"380.6 K, Mass density=0.1654 kg/m3",0.01258 ± 0.00011 mPa·s
same,viscosity,"380.8 K, Mass density=0.0186 kg/m3",0.01263 ± 0.00011 mPa·s
same,viscosity,"381.09 K, Mass density=0.0402 kg/m3",0.01263 ± 0.00011 mPa·s
same,viscosity,"381.09 K, Mass density=0.0793 kg/m3",0.01263 ± 0.00011 mPa·s
same,viscosity,"381.33 K, Mass density=0.1081 kg/m3",0.01263 ± 0.00011 mPa·s
same,viscosity,"381.7 K, Mass density=0.2351 kg/m3",0.01262 ± 0.00011 mPa·s
same,viscosity,"382.14 K, Mass density=0.0368 kg/m3",0.01268 ± 0.00011 mPa·s
same,viscosity,"393.95 K, Mass density=0.1654 kg/m3",0.01309 ± 0.00012 mPa·s
same,viscosity,"394.29 K, Mass density=0.0668 kg/m3",0.0131 ± 0.00012 mPa·s
same,viscosity,"394.39 K, Mass density=0.0186 kg/m3",0.01314 ± 0.00012 mPa·s
same,viscosity,"394.43 K, Mass density=0.1973 kg/m3",0.0131 ± 0.00012 mPa·s
same,viscosity,"394.48 K, Mass density=0.2351 kg/m3",0.01311 ± 0.00012 mPa·s
same,viscosity,"394.72 K, Mass density=0.0247 kg/m3",0.01313 ± 0.00012 mPa·s
same,viscosity,"395 K, Mass density=0.1081 kg/m3",0.01314 ± 0.00012 mPa·s
same,viscosity,"395.38 K, Mass density=0.0402 kg/m3",0.01316 ± 0.00012 mPa·s
same,viscosity,"395.87 K, Mass density=0.0793 kg/m3",0.01319 ± 0.00012 mPa·s
same,viscosity,"396.61 K, Mass density=0.0368 kg/m3",0.01322 ± 0.00012 mPa·s
same,viscosity,"408.3 K, Mass density=0.1654 kg/m3",0.01365 ± 0.00012 mPa·s
same,viscosity,"408.32 K, Mass density=0.0668 kg/m3",0.01364 ± 0.00012 mPa·s
same,viscosity,"408.34 K, Mass density=0.2351 kg/m3",0.01365 ± 0.00012 mPa·s
same,viscosity,"408.76 K, Mass density=0.1973 kg/m3",0.01366 ± 0.00012 mPa·s
same,viscosity,"408.87 K, Mass density=0.0186 kg/m3",0.01369 ± 0.00012 mPa·s
same,viscosity,"409.37 K, Mass density=0.1081 kg/m3",0.01369 ± 0.00012 mPa·s
same,viscosity,"409.39 K, Mass density=0.0793 kg/m3",0.0137 ± 0.00012 mPa·s
same,viscosity,"409.46 K, Mass density=0.0402 kg/m3",0.01369 ± 0.00012 mPa·s
same,viscosity,"409.76 K, Mass density=0.0247 kg/m3",0.01371 ± 0.00012 mPa·s
same,viscosity,"411.18 K, Mass density=0.0368 kg/m3",0.01379 ± 0.00012 mPa·s
same,viscosity,"422.56 K, Mass density=0.2351 kg/m3",0.01421 ± 0.00012 mPa·s
same,viscosity,"422.69 K, Mass density=0.1654 kg/m3",0.01422 ± 0.00012 mPa·s
same,viscosity,"422.72 K, Mass density=0.0668 kg/m3",0.0142 ± 0.00012 mPa·s
same,viscosity,"422.75 K, Mass density=0.0247 kg/m3",0.01422 ± 0.00012 mPa·s
same,viscosity,"422.94 K, Mass density=0.1973 kg/m3",0.01422 ± 0.00012 mPa·s
same,viscosity,"423.26 K, Mass density=0.0186 kg/m3",0.01424 ± 0.00012 mPa·s
same,viscosity,"423.44 K, Mass density=0.0793 kg/m3",0.01425 ± 0.00012 mPa·s
same,viscosity,"423.62 K, Mass density=0.1081 kg/m3",0.01425 ± 0.00012 mPa·s
same,viscosity,"423.7 K, Mass density=0.0402 kg/m3",0.01426 ± 0.00012 mPa·s
same,viscosity,"423.8 K, Mass density=0.0368 kg/m3",0.01428 ± 0.00012 mPa·s
same,viscosity,"437.27 K, Mass density=0.2351 kg/m3",0.01482 ± 0.00013 mPa·s
same,viscosity,"437.71 K, Mass density=0.1654 kg/m3",0.01483 ± 0.00013 mPa·s
same,viscosity,"437.84 K, Mass density=0.1973 kg/m3",0.01484 ± 0.00013 mPa·s
same,viscosity,"438.04 K, Mass density=0.0668 kg/m3",0.01481 ± 0.00013 mPa·s
same,viscosity,"438.05 K, Mass density=0.1081 kg/m3",0.01483 ± 0.00013 mPa·s
same,viscosity,"438.48 K, Mass density=0.0368 kg/m3",0.01487 ± 0.00013 mPa·s
same,viscosity,"438.71 K, Mass density=0.0793 kg/m3",0.01486 ± 0.00013 mPa·s
same,viscosity,"438.77 K, Mass density=0.0186 kg/m3",0.01485 ± 0.00013 mPa·s
same,viscosity,"438.99 K, Mass density=0.0402 kg/m3",0.01486 ± 0.00013 mPa·s
same,viscosity,"440.41 K, Mass density=0.0247 kg/m3",0.01492 ± 0.00013 mPa·s
